Experimental data: patent US4761415A, “Dopamine-β-hydroxylase inhibitors” (SmithKline Beckman Corporation, priority 1986, dated 1988)
Structures can show the parent of a compound that is named as a salt.

Columns and labels:
[1] = biological target: T1, dopamine-β-hydroxylase (DBH) (Bos taurus, UniProt P15101); experiment: biochemical; conditions: molar concentration at which DBH activity was halved
T1 sequence (P15101 1-610): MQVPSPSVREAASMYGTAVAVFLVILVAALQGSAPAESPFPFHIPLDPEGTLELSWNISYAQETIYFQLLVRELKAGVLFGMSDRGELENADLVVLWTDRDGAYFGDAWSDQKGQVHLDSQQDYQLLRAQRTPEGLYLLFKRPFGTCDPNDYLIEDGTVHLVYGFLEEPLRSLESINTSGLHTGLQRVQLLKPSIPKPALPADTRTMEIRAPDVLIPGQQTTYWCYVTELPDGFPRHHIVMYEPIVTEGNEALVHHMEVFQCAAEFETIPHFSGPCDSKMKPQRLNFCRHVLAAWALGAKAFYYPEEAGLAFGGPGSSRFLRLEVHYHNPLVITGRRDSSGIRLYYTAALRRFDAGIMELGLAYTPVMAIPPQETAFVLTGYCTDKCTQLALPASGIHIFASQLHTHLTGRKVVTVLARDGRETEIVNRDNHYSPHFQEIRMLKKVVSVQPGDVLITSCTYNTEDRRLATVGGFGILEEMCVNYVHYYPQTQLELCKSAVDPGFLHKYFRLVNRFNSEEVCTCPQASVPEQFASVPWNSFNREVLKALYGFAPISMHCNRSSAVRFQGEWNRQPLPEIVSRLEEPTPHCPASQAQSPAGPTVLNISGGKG
Procedure: J. J. Pisano, et al., Biochim. Biophys. Acta, 43, 566-568 (1960). Octopamine was assayed following sodium periodate oxidation to p-hydroxybenzaldehyde by measuring spectrophotometric absorbance at 330 nm.

[2] = inhibition of cytochrome P450-dependent mixed function oxidase catalyzed deethylation of ethoxycoumarin; format: in vitro ADME; conditions: read-out: P-450 IC50
Procedure: The compounds listed in Table I also were evaluated for their ability to inhibit cytochrome P450-dependent mixed function oxidase catalyzed deethylation of ethoxycoumarin by the procedure of […] and Poland, J. Pharmacol. Exp. Ther., 205, 596-605 (1978).

DBH = conditions: cited from earlier work
[3] = Ehrreich et al., 1976; cited from earlier work
[4] = tested on: spontaneously hypertensive rats; experiment: mean arterial blood pressure in spontaneously hypertensive rats; format: in vivo, rat; conditions: 50 mg/kg intraperitoneally; for time to significant blood pressure reduction following treatment / blood pressure reduction (in words): compared to vehicle-treated controls; for blood pressure reduction (in words): within 30 minutes; for maximal blood pressure reduction: monitored for 260 minutes, indwelling cannulae in tail arteries
Procedure: Further, spontaneously hypertensive rats were treated with a suspension or solution of 3-mercapto-4-benzyl-5-[(4-methyl-piperazinyl)methyl]-1,2,4-triazole or 3-mercapto-4-(3-fluorobenzyl)-5[(4-methyl-1-piperazinyl)methyl]-1,2,4-triazole at a dose of 50 mg/kg intraperitoneally, and mean arterial blood pressure was monitored for 260 minutes using indwelling cannulae in the tail arteries. […] The maximal blood pressure reductions were approximately 25 and 40 mmHg, respectively, for each of the administered compounds.

[5] = Teresawa et al., Japan. Cir. J. 35, 339 (1971); cited from earlier work

Fc1cc(F)cc(Cn2ccnc2S)c1 [1-(3,5-difluorobenzyl)-2-mercapto imidazole, reference compound]
IC50 [1]: 1.2 µM
IC50 [2]: 12 µM

CN1CCN(Cc2nnc(S)n2Cc2ccccc2)CC1 [3-mercapto-4-benzyl-5-[(4-methyl-1-piperazinyl)methyl]-1,2,4-triazole hydrochloride]
IC50 [1]: 90 µM
IC50 [2]: 700 µM

O=C(O)c1ccc(CCC(Br)CBr)cn1 (stereo not shown) [5-(3,4-dibromobutyl)picolinic acid]
DBH inhibition (in words, literature) (DBH): DBH inhibitors

O=C(O)c1ccc(CCCCCl)cn1 [5-(4-chlorobutyl) picolinic acid]
DBH inhibition (in words, literature) (DBH): inhibit DBH

CN(C)C(=S)SCc1ccc(C(=O)O)nc1 [5-(dimethyldithiocarbamoylmethyl)picolinic acid]
DBH inhibition (in words, literature) (DBH): DBH inhibitors

NOCc1ccccc1 [Benzyloxyamine, benzyloxyamine]
DBH inhibition (in words, literature) (DBH): apparently act as competitive inhibitors

CCCCc1ccc(C(N)=O)nc1 [Bupicomide, 5-(n-butyl)picolinamine]
DBH inhibition (in words, literature) (DBH): DBH inhibitor
antihypertensive activity [3]: has antihypertensive activity

CN1CCN(Cc2nnc(S)n2Cc2ccccc2)CC1 [Example 1, 3-Mercapto-4-benzyl-5-[(4-methyl-1-piperazinyl)methyl]-1,2,4-triazole]
time to significant blood pressure reduction following treatment [4]: ≤ 30 min
blood pressure reduction (in words) [4]: significant blood pressure reductions
maximal blood pressure reduction [4]: approximately 25 mmHg

CN1CCN(Cc2nnc(S)n2Cc2cccc(F)c2)CC1 [Example 2, 3-Mercapto-4-(3-fluorobenzyl)-5-[(4-methyl-1-piperazinyl)methyl]-1,2,4-triazole]
time to significant blood pressure reduction following treatment [4]: ≤ 30 min
blood pressure reduction (in words) [4]: significant blood pressure reductions
maximal blood pressure reduction [4]: ~40 mmHg
IC50 [1]: 60 µM
IC50 [2]: 375 µM

CN1CCN(Cc2nnc(S)n2Cc2cc(F)cc(F)c2)CC1 [Example 3, 3-Mercapto-4-(3,5-difluorobenzyl)-5-[(4-methyl-1-piperazinyl)methyl]-1,2,4-triazole]
IC50 [1]: 50 µM
IC50 [2]: 350 µM

CCCCc1ccc(C(=O)O)nc1 [Fusaric acid]
hepatotoxicity [5]: hepatotoxic

NNCc1ccccc1 [benzylhydrazine]
DBH inhibition (in words, literature) (DBH): apparently act as competitive inhibitors
